The text below walks through data of patent US20210317092A1 (BAYER PHARMA AKTIENGESELLSCHAFT, priority 2016, published 2021).

As usually defined, the IC50 is the midpoint of a concentration-inhibition curve.

For the experiment, the target named is T1, human Bradykinin B1 receptor (Homo sapiens, UniProt P46663).
T1 construct: host or cells: CHO-K1
T1 sequence (P46663 1-353): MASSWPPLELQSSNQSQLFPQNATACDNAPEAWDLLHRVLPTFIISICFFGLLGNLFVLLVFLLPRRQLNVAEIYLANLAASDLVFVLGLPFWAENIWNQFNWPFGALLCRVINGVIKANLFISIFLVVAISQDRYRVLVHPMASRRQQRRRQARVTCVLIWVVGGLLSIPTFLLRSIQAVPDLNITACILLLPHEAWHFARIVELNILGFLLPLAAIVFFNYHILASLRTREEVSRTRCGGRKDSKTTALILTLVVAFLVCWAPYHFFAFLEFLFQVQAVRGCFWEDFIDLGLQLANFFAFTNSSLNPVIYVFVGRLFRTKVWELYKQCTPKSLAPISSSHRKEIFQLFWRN
The experiment in a line: Calcium flux Assay (FLIPR) with recombinant CHO-K1 cells expressing human Bradykinin B1 receptor, in presence (hB1 IC50) or absence (hB1 free IC50) of 0.1% BSA. The experiment is classed as cell-based.

The mark [1] stands for this setting: in presence of 0.1% BSA, read-out: hB1 IC50.
Where [2] appears, read: in absence of 0.1% BSA, read-out: hB1 free IC50.

Like-named read-outs stand apart in the source and are kept apart here.

On to `COc1ccc(-c2ccc(NC(=O)C3(c4cccc(Cl)c4)CC3)cc2-c2nnn[nH]2)cn1` [Example 316, 1-(3-chlorophenyl)-N-[4-(6-methoxypyridin-3-yl)-3-(1H-tetrazol-5-yl)phenyl]cyclopro-panecarboxa-mide], for which the IC50 under setting [1] turned out to be 0.328 µM.

In the case of `O=C(Nc1ccc(-c2ccc(OC(F)(F)F)cc2)c(-c2nnn[nH]2)c1)C1(c2cccc(Cl)c2)CC1` [Example 317, 1-(3-chlorophenyl)-N-[2-(1H-tetrazol-5-yl)-4′-(trifluoromethoxy)biphenyl-4-yl]cyclopropane-carboxamide], the IC50 under setting [1] was determined as 0.0529 µM.

For the molecule `CCOc1cncc(-c2ccc(NC(=O)C3(c4cccc(Cl)c4)CC3)cc2-c2nnn[nH]2)c1` [Example 318, 1-(3-chlorophenyl)-N-[4-(5-ethoxypyridin-3-yl)-3-(1H-tetrazol-5-yl)phenyl]cyclopro-panecarboxa-mide], under setting [1], the IC50 stood at 0.0591 µM.

For `CS(=O)(=O)c1cncc(-c2ccc(NC(=O)C3(c4cccc(Cl)c4)CC3)cc2-c2nnn[nH]2)c1` [Example 319, 1-(3-Chlorophenyl)-N-{4-[5-(methylsulfonyl)pyridin-3-yl]-3-(1H-tetrazol-5-yl)phenyl}cyclopro-panecarboxa-mide], the concentration for half-maximal inhibition (IC50) worked out at 0.436 µM under setting [2] and 0.521 µM under setting [1].

Take `COc1cc(-c2ccc(NC(=O)C3(c4cccc(Cl)c4)CC3)cc2-c2nnn[nH]2)ccn1` [Example 320, 1-(3-Chlorophenyl)-N-[4-(2-methoxypyridin-4-yl)-3-(1H-tetrazol-5-yl)phenyl]cyclopro-panecarboxa-mide]: the IC50 under setting [1] was found to be 0.208 µM.

With `O=C(Nc1ccc(-c2cnc3ccoc3c2)c(-c2nnn[nH]2)c1)C1(c2cccc(Cl)c2)CC1` [Example 321, 1-(3-chlorophenyl)-N-[4-(furo[3,2-b]pyridin-6-yl)-3-(1H-tetrazol-5-yl)phenyl]cyclopro-panecarboxa-mide], the IC50 under setting [1] was found to be 0.152 µM.

On to `O=C(Nc1ccc(-c2ccc(N3CCOCC3)cc2)c(-c2nnn[nH]2)c1)C1(c2cccc(Cl)c2)CC1` [Example 322, 1-(3-chlorophenyl)-N-[4′-(morpholin-4-yl)-2-(1H-tetrazol-5-yl)biphenyl-4-yl]cyclopropane carboxamide], for which the IC50 under setting [1] was found to be 0.238 µM.

In the case of `N#Cc1ccc(-c2ccc(NC(=O)C3(c4cccc(Cl)c4)CC3)cc2-c2nnn[nH]2)cn1` [Example 323, 1-(3-chlorophenyl)-N-[4-(6-cyanopyridin-3-yl)-3-(1H-tetrazol-5-yl)phenyl]cyclopro-panecarboxa-mide], the IC50 under setting [1] is 0.355 µM.

Take `N#Cc1cc(-c2ccc(NC(=O)C3(c4cccc(Cl)c4)CC3)cc2-c2nnn[nH]2)ccc1Cl` [Example 325, N-[4′-chloro-3′-cyano-2-(1H-tetrazol-5-yl)biphenyl-4-yl]-1-(3-chlorophenyl)cy-clopropanecarbox-amide]: the IC50 under setting [1] was found to be 1.74 µM.

For the molecule `CN1CCN(c2ccc(-c3ccc(NC(=O)C4(c5cccc(Cl)c5)CC4)cc3-c3nnn[nH]3)cc2)CC1` [Example 330, 1-(3-chlorophenyl)-N-[4′-(4-methylpiperazin-1-yl)-2-(1H-tetrazol-5-yl)biphenyl-4-yl]cyclopropane carboxamide], the IC50 came to 0.141 µM under setting [2] and 0.158 µM under setting [1].

Consider `CS(=O)(=O)Nc1ccc(-c2ccc(NC(=O)C3(c4cccc(Cl)c4)CC3)cc2-c2nnn[nH]2)cc1` [Example 331, 1-(3-chloropehnyl)-N-{4′-[(methylsulfonyl)amino]-2-(1H-tetrazol-5-yl)biphenyl-4-yl}cyclopropane carboxamide], for which the IC50 came out at 0.162 µM under setting [2] and 0.206 µM under setting [1].

With `O=C(Nc1ccc(-c2cc3c(Cl)nccc3o2)c(-c2nnn[nH]2)c1)C1(c2cccc(Cl)c2)CC1` [Example 332, N-[4-(4-chlorofuro[3,2-c]pyridin-2-yl)-3-(1H-tetrazol-5-yl)phenyl]-1-(3-chlorophenyl)cy-clopropanecarbox-amide], the IC50 is, setting by setting: under setting [2], 0.191 µM; under setting [1], 0.274 µM.
